According to patent publication US20230304024A1, “Modulation of Gene Expression Via Transcription Factor-Chemically Induced Proximity (TF-CIP)” (The Board of Trustees of the Leland Stanford Junior …, priority 2020, published 2023):
pEC50: −log10 of the molar value. “Also recorded” adds a separate entry of the source.

How the values were obtained:
Karpas 422 = assay: Cell death / viability, PrestoBlue HS (resazurin) assay, Karpas 422; type: cell-based; conditions: FIG. 6 Panel B, ER-positive cells with amplified/rearranged BCL6, compared with BI3812
Method: (§1) Note that the higher concentrations lead to a reduction in activation of the reporter consistent with the “hook effect” characteristic of bifunctional molecules as they saturate both binding sites.(PMID: 8752278; PMID:21406691), in this case the BCL6 protein and the estrogen receptor. […] Panel C. […] Viability was measured using the PrestoBlue HS (resazurin) assay for viable cells (1:10 ratio in media and 1 h incubation).
(§2) These reporter systems and direct measures of cancer cell killing were used to assess the TF-CIP molecules made by rational design that are illustrated in FIG. 4. As shown in Panel A, addition of ER-TF-CIP6 activates GFP expression by the BCL reporter with an EC50 of about 1 to 10 micromolar. […] Note that the higher concentrations lead to a reduction in activation of the reporter consistent with the “hook effect” characteristic of bifunctional molecules as they saturate both binding sites. (PMID: 8752278; PMID:21406691), in this case the BCL6 protein and the estrogen receptor. […] Viability was measured using the PrestoBlue HS (resazurin) assay for viable cells (1:10 ratio in media and 1 h incubation).

BCL6 reporter = BCL6 reporter GFP activation; type: cell-based, human; conditions: FIG. 6 Panel A
Excerpt: FIGS. 5A to 5C illustrate the development of reporters for activation of cell death or pro-apoptotic pathways by the disinhibited BCL6 protein or the pro-apoptotic protein FOXO3A. FIG. 5A: The BCL6 reporter consists of an array of BCL6 binding sites taken from different pro-apoptotic genes including TP53, PUMA, BIM and others. These genes have the ability to kill cells when simply overexpressed (PMID:11463391). Ten base pairs on either side of the actual human BCL6 binding site are included to take advantage of the fact that transcriptional specificity is due to the concerted binding of proteins in an enhanceosome (PMID:9510247, 18206362).
as §1
FIGS. 5A to 5C provide examples of how one measures the effect of a TF-CIP to allow chemical optimization of linker and ligands. […] Thus, the reporter system is multiplexed and useful for defining and quantitating apoptotic responses in many different cell types. […]

[1] = test system: ER-negative breast cancer cell lines; assay: Cell death / viability, PrestoBlue HS (resazurin) assay, ER-negative breast cancer cell lines; type: cell-based; conditions: FIG. 6 Panels D and E; two ER-negative or low-ER breast cancer cell lines
Method: as §1, §2

HEK293 cells = assay: Cell death / viability, PrestoBlue HS (resazurin) assay, HEK293; type: cell-based; conditions: FIG. 6 Panel C
Method: as §1, §2

CNC(=O)COc1cc2cc(Nc3nc(N4CCC(C(=O)NCCOCCOCCNC(=O)CO/N=C5\CCC6C7CCc8cc(O)ccc8C7CC[C@]56C)CC4)ncc3Cl)cc(OC)c2n(C)c1=O (stereo partly drawn) [ER-TF-CIP6] was tested, and the “induction of cell death” value (Karpas 422) was “more effectively than B13812”, the “induction of cell death” value (Karpas 422; listed as ER-TFCIP6) was “more effectively than BI3812” and the “potency in BCL6 reporter relative to BI3812” value (BCL6 reporter; comparison with parent compound BI3812) was “substantially lower concentration than that of the parent compound”. The pEC50 (BCL6 reporter; Homo sapiens, read-out: EC50 of activation of GFP expression by the BCL reporter) was 5.00 to 6.00, the cell killing [1] was “does not kill; also recorded: are not killed” and the “induction of cell death” value (HEK293 cells) was “induces cell death”.
